The values below come from patent US20240316059A1, “PEPTIDE DRUG CONJUGATES” (Oncopeptides AB, priority 2021, published 2024).

The test system of series [1] is MM.1S cells. Nature of the series: In vitro cytotoxic potency in MM.1S cell viability assay (CellTiter-Glo). It counts as cell-based, human. Particulars: Homo sapiens, MM1.S, 72 h. A digest of the protocol:
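Log-phase MM.1S cells in supplemented RPMI 1640 were seeded at 100000 cells/mL with compound (0.2% DMSO final). After 72 h at 37 °C in CO2, viability was measured by CellTiter-Glo 2.0 luminescence.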

In series [2] the test system is OPM-2. Kind of series: In vitro cytotoxicity, OPM-2 (Multiple Myeloma). It is filed as cell-based. As to conditions: Homo sapiens, OPM-2, 72 h, read-out: Cytotoxicity IC50, OPM-2. How it is done:
(§1) All cells were cultivated in RPMI medium 1640 (IX). All media was supplemented with 10 μg/μl penicillin/streptomycin, 10% heat inactivated FBS, 0.1 mM Sodium Pyruvate, 1×MEM NEAA (ThermoFisher) and 1 mM HEPES. The DERL-2 cells had higher FBS (20%) and 40 ng/mL IL-2 was added. hPBMCs were thawed and allowed to acclimatise overnight and then stimulated with 10 μg/mL PHA-M and 40 ng/mL IL-2 for 4 hours before being exposed to test compounds. All cells, except for hPBMCs, were grown to reach log phase before being exposed to the test compounds.
(§2) Test compounds were dissolved in 100% DMSO and added to a 384 assay plate. Additional DMSO was added to maintain the same final DMSO concentration (0.2%) in all wells. 25 μL cell suspension with a concentration of 100000 cells/mL was added to each well. The cells were cultured in a CO2 incubator at 37° C. for 72 h. Plates were equilibrated to room temperature for 30 minutes before adding 20 μL CellTiter-Glo® 2.0 (Promega) reagent to all wells. The plate was then allowed to stabilize for 20 minutes before recording the luminescence (Em filter 700 nm) in an Envision plate reader.

Series [3] concerns RPMI-8226. Nature of the series: In vitro cytotoxicity, RPMI-8226 (Multiple Myeloma, resistant). Particulars: Homo sapiens, RPMI-8226, 72 h, read-out: Cytotoxicity IC50, RPMI-8226. It is filed as cell-based. How it is done:
as §1, §2

In series [4] the test system is SC-1. Kind of series: In vitro cytotoxicity, SC-1 (B cell Lymphoma). It counts as cell-based. Particulars: Homo sapiens, SC-1, 72 h, read-out: Cytotoxicity IC50, SC-1. How it is done: as §1, §2
For series [5], the system named is SU-DHL-8. Kind of series: In vitro cytotoxicity, SU-DHL-8 (B-cell non-Hodgkin Lymphoma). It is filed as cell-based. As to conditions: Homo sapiens, SU-DHL-8, 72 h, read-out: Cytotoxicity IC50, SU-DHL-8. As for the experimental part:
as §1, §2

The test system of series [6] is DERL-2. Kind of series: In vitro cytotoxicity, DERL-2 (T cell Lymphoma). It counts as cell-based. As to conditions: Homo sapiens, 72 h, read-out: Cytotoxicity IC50, DERL-2. How it is done:
as §1, §2

For series [7], the system named is SUP-T1. Kind of series: In vitro cytotoxicity, SUP-T1 (T cell Lymphoma). It is filed as cell-based. Particulars: Homo sapiens, SUP-T1, 72 h, read-out: Cytotoxicity IC50, SUP-T1. As for the experimental part:
as §1, §2

Series [8] is described as follows: In vitro cytotoxicity, BJ fibroblasts (normal cells). It counts as cell-based. As to conditions: human, CellTiter-Glo 2.0. As for the experimental part: as §1, §2
Background: In ATP-based viability assays light output follows the ATP content of the culture.

Series [9] is described as follows: In vitro cytotoxicity, human peripheral blood mononuclear cells. Particulars: CellTiter-Glo 2.0, stimulated with PHA-M and IL-2, read-out: Cytotoxicity IC50, hPBMC. It is filed as cell-based. How it is done:
as §1, §2

The subject of series [10] is SU-DHL-4 human lymphoma cell line. Kind of series: In ovo chicken embryo xenograft model, tumour weight. It is filed as in vivo. Particulars: 100 μL injected day 11, 13, 15, 17, tumours weighed day 18. As for the experimental part:
Methods: Inoculation of Fertilized White Leghorn eggs was performed with 3×10^6 SU-DHL-4 tumour cells on day 9 (post-fertilisation). Viable eggs were injected with 100 μL of either Example compound 1 (8.4 uM (0.008 mg/kg), 33.5 uM (0.033 mg/kg), 167.5 uM (0.164 mg/kg)), bendamustine (8.4 uM (0.005 mg/kg), 33.5 uM (0.02 mg/kg), 167.5 uM (0.1 mg/kg)) or vehicle on day 11, 13, 15 and 17. On day 18, tumours were removed and weighed.

For series [11], the system named is DNA prepared from MM.1S cells (nuclear HPRT and mitochondrial DNA). Nature of the series: Direct DNA damage, PCR amplification of treated DNA (HPRT and mtDNA primers). It counts as biochemical, human. Particulars: 0.25 μM compound, 30 minutes, 37° C., 1 μg DNA. As for the experimental part:
Method: DNA was prepared from MM.1S cells by QIAGEN genomic tip 20/G according to protocol described in Furda et al., Methods Mol Biol, 2012. 1 μg of DNA was treated with 0.25 μM compound for 30 minutes at 37° C. DMSO was used as control treatment. 20 ng of the treated DNA was PCR amplified using Phusion Hot Start II High Fidelity PCR Master Mix (Thermo Scientific) and primers directed to either HPRT or primers directed to mitochondrial DNA (mtDNA) was used, generating 10.4 or 8.9 kb fragments, respectively. The PCR reactions were separated on a 1% agarose gel and visualized by ChemiDoc™ MP Imaging System (BioRad). Example compounds 1, 2 and 38 were investigated, as were compounds 18 and 20, which are metabolites of compound 1. They were compared with bendamustine, melphalan and DMSO control. The results for compounds 1, 2, 18 and 20 with the HPRT primers are shown in FIG. 4(A); the results with the mtDNA primers are shown in FIG. 4(B).

The subject of series [12] is MM.1S cells. Kind of series: DNA fragmentation, APO-BrdU TUNEL assay by flow cytometry. It counts as cell-based, human. As to conditions: 24 h; for Cells with DNA breaks (TUNEL positive cells): 0.6 μM; for Dose response effect on DNA damage (TUNEL): 0.006, 0.06, 0.6 or 6 μM. How it is done:
Method: 1×10^6 MM.1S cells (CRL-2974, ATCC) were treated with Example compound 1 or Bendamustine at 0.006, 0.06, 0.6 or 6 μM for 24 h. After incubation, the cells were washed with PBS (10010-015, Gibco), fixed in Flow Cytometry Fixation Buffer (FC004, R&D Systems) for 10 min and stored in 70% ethanol at −20° C. overnight. The deoxythymidine analog (BrdUTP) was present in the experiment and served to label the DNA break sites. Next day, the cells were washed and stained using an APO-BrdU™ TUNEL Assay Kit, according to the manufacturer's protocol (A23210, Invitrogen), followed by the analysis using BD FACSCanto™ II. The percentage of TUNEL positive cells indicates the percentage of cells with fragmented DNA.
(In general: A flow cytometer gives signals particle by particle.)

Setting [13] is: read-out: Cytotoxicity IC50, MM.1S.

Each structure is given as a SMILES string. Read-outs that look alike come from different tables or passages of the source. Some results are limits rather than exact numbers.

In general, IC50 refers to the concentration that gives 50% inhibition.

In the case of `Cn1c(CCCC(=O)O)nc2cc(N(CCCl)CCCl)ccc21` [Bendamustine, bendamustine, reference compound], the IC50 is 24000 nM in series [1] (setting [13]); 24000 nM in series [1] (read-out: MM.1S IC50); 81900 nM in series [2]; 111000 nM in series [3]; 25100 nM in series [4]; 14300 nM in series [5]. The IC50 came out at 21100 nM in series [6] and 33500 nM in [7]. Also, the values for the IC50 at 72 h in series [8] and in series [9] were more than 599000 nM and 15800 nM, respectively. Besides, the entries for the “Tumour reduction compared to vehicle” value in series [10] (33.5 μM) and in [10] (167.5 μM) were 30% and 76%, respectively. In addition, in series [11], the “DNA damage on nuclear and mitochondrial DNA (PCR band)” value is recorded as “no or very minor effect on DNA damage”. Also, the “Cells with DNA breaks (TUNEL positive cells)” value in [12] is “that was not the case”. Also, in [12], the “Dose response effect on DNA damage (TUNEL)” value is given as “no obvious effect”.

Regarding `CCOC(=O)[C@H](CC(C)C)NC(=O)[C@@H](N)CCc1nc2cc(N(CCCl)CCCl)ccc2n1C` [Example 1, Ethyl (2S)-2-[[(2S)-2-amino-4-[5-[bis(2-chloroethyl)amino]-1-methyl-benzimidazol-2-yl]butanoyl]amino]-4-methyl-pentanoate], the IC50 in [1] (setting [13]) worked out at 6.8 nM; in [1] (read-out: MM.1S IC50), 6.8 nM; in series [2] it was 173 nM; in series [3], 90.6 nM; in [4], 13.3 nM; in series [5], 19.9 nM. Besides, the IC50 in series [6] amounted to 6 nM; in series [7], 12.7 nM. Besides, the figures for the IC50 at 72 h in series [8] and in series [9] were 1070 nM and 5.4 nM, respectively. In addition, the “Tumour reduction compared to vehicle” value is 38% in series [10] (8.4 μM), 70% in series [10] (33.5 μM) and 82% in [10] (167.5 μM). Besides, the “DNA damage on nuclear and mitochondrial DNA (PCR band)” value in series [11] is reported as “strong DNA damaging effect”. Also, the “Cells with DNA breaks (TUNEL positive cells)” value in [12] is more than 90%. Moreover, the “Dose response effect on DNA damage (TUNEL)” value in series [12] is “induced DNA damage in a dose-dependent manner”.
